Measurements: patent US20250157614A1, “SUBSTANCE DELIVERY PLANNING SYSTEM” (Syqe Medical Ltd., priority 2019, published 2025)

Columns and labels:
[1] = Clinical trial: pharmacokinetic analysis of Δ9-THC plasma levels after single inhalation via metered dose inhaler
Protocol: An objective of the trial was to evaluate the effects of a single inhalation of vaporized ground cannabis doses comprising 0.5 mg or 1 mg THC, as compared to placebo. […] The patients were licensed to use medical cannabis and were guided to refrain from using cannabis at least 12 hours prior to the trial commencement. The patients were guided how to use the inhaler device and signed a written consent.
The trial included three sessions, with an interval of at least 48 hours between sessions. In each of the sessions, a randomized single dose or placebo was delivered to the patients via inhalation. During each session, at a plurality of pre-defined time points, the patients were cognitively tested using “Cambridge Neuropsychological Test Automated Battery”; questioned for assessment of pain (using the VAS); their blood pressure and heartrate were measured; and they were questioned regarding safety parameters, such as feeling “high”, dizziness, mouth dryness. Blood samples were collected at pre-defined time points for performing a pharmacokinetic analysis of THC (being the active substance, in accordance with some embodiments).

chronic pain = assay: Clinical trial: pain intensity (0-10 point VAS) after single inhalation via metered dose inhaler; type: in vivo, human (hospitalized adult patients)
Text: FIG. 5B presents effects of the three different interventions on pain intensity. About 1 VAS point decline in pain intensity was noted during the follow-up period following placebo administration.

[2] = single inhalation of 0.5 mg Δ9-THC
[3] = single inhalation of 1 mg Δ9-THC
[4] = 0.5 mg dosage, observed at 120 minutes following inhalation
[5] = 1 mg dosage, observed at 60 minutes following inhalation

SMILES: CCCCCc1cc(O)c2c(c1)OC(C)(C)[C@@H]1CCC(C)=C[C@@H]21 [Δ9-THC, Δ9-tetrahydrocannabinol]
- mean area under the curve of plasma concentration vs. time from 0 to infinity (AUC0→infinity) [1, 2]: 300 ± 144 ng/min/mL
- time upon which maximum plasma concentration was reached (Tmax) [1, 2]: 3.7 ± 1.4 min
- mean maximum plasma Δ9-THC concentration (Cmax) ±SD ([1]; single inhalation of 0.5 mg Δ9-THC, vaporized ground cannabis, 22 of 27 patients analysed): 14.3 ± 7.7 ng/mL
- AUC0→infinity [1, 3]: 769 ± 331 ng/min/mL
- Cmax ±SD [1, 3]: 33.8 ± 25.7 ng/mL
- Tmax [1, 3]: 4.4 ± 2.1 min
- maximum change in VAS pain score (chronic pain; [4]): 1.95 points
- maximum change in VAS pain score (percent) (chronic pain; [4]): 24%
- decline in pain intensity compared to placebo (chronic pain; 0.5 mg Δ9-THC dose, follow-up period): greater decline in pain intensity
- maximum change in VAS pain score (chronic pain; [5]): 2.95 points
- maximum change in VAS pain score (percent) (chronic pain; [5]): 39.4%
- reduction in VAS compared to placebo (0 mg) and 0.5 mg (chronic pain; 1 mg dose, 15 minutes after inhalation and onward, RM-ANOVA p=0.0015 vs placebo, p=0.0058 vs 0.5 mg): statistically significantly larger
